Assay results from patent USRE48461E1, “Modulation of androgen receptor expression” (Ionis Pharmaceuticals, Inc., priority 2012, dated 2021).

How the values were obtained:
Type in all cases: cell-based, human
[1] = tested on: TMPRSS2 mRNA; test: TMPRSS2 expression in C4-2 cells; conditions: 48 hrs
Protocol: Cells were plated at 1,000 cells per well. […] After an incubation period of 48 hrs, RNA levels of AR, PSA and TMPRSS2 were measured.
Cells were plated at 2,000 cells per well and cultured in CSS media with 1 nM DHT. […] After an incubation period of 48 hrs, RNA levels of AR, PSA and TMPRSS2 were measured.

[2] = tested on: C4-2B cells; test: C4-2B cell proliferation (complete or CSS+DHT medium; Example 30); conditions: C4-2B cells, 5 days
Protocol: (§1) After a treatment period of 5 days in complete medium or CSS+1 nM DHT medium, the proliferative capacity of the cancer cells was measured with using CellTiter 96® AQueous One or CellTiter-Glo® Solution Cell Proliferation kit (Promega), following the manufacturer's instructions.

[3] = tested on: VCaP cells; test: VCaP cell proliferation; conditions: VCaP cells, 5 days
Protocol: as §1, with “instructions. […] Treatment with ISIS oligonucleotides in CSS+DHT medium reduced the proliferative capacity to a greater extent than treatment with MVD-3100. The proliferative capacity of cells cultured in CSS medium without DHT is 12% of untreated control levels.” for “instructions.”

[4] = tested on: full length AR mRNA; test: Full-length AR RNA in 22RV1 cells (complete, CSS+DHT medium); conditions: RNAiMax, 48 hrs
Protocol: Cells were plated at 1,000 cells per well. […] After an incubation period of 48 hrs, RNA levels of full length AR, the V7 variant, PSA and TMPRSS2 were measured.
After an incubation period of 48 hrs, RNA levels of full length AR, the V7 variant, PSA and TMPRSS2 were measured.
Cells were plated at 2,000 cells per well and cultured in CSS media for 16 hours. […] After 4 hrs, 1 nM DHT was added. […] After an incubation period of 48 hrs, RNA levels of AR, AR V7 variant, PSA and TMPRSS2 were measured.

[5] = tested on: AR V7 variant mRNA; test: AR V7 variant RNA in 22RV1 cells; conditions: RNAiMax, 48 hrs
[6] = tested on: 22RV1 cells; test: 22RV1 apoptosis (Caspase-glo 3/7); conditions: 22RV1 cells, 72 hours
Protocol: After a treatment period of 72 hours in complete medium or CSS+DHT medium, apoptosis of the cancer cells was measured with Caspase-glo 3/7 assay kit (Promega). Results are presented in Tables 131 and 132 as percent apoptosis of the cells, relative to non-treated cells.

In the case of “GGCTACTACGCCGTCA (3-10-3 (S)-cEt gapmer, chemistry not fully specified) [ISIS 549148, reference compound]”, the “Percent inhibition of TMPRSS2 expression” value ([1]; C4-2 cells, CSS + DHT medium, 5.0 μM) is reported as 28%, the “Percent inhibition of TMPRSS2 expression in C4-2 cells cultured in complete medium” value (“Percent inhibition … in complete medium” below) ([1]; 0.04 μM) is reported as 2% and the “Percent inhibition … in complete medium” value ([1]; 0.2 μM) is reported as 7%. For the same sequence, the “Percent inhibition … in complete medium” value ([1]; 1 μM) was 10%, the “Percent inhibition … in complete medium” value ([1]; 5.0 μM) was 0% and the “Proliferation (% untreated control)” value ([2]; CSS + DHT medium, 0.04 μM) was 109 % untreated control. For the same sequence, the “Proliferation (% untreated control)” value ([2]; CSS + DHT medium, 0.2 μM) was 131 % untreated control, the “Proliferation (% untreated control)” value ([2]; CSS + DHT medium, 1 μM) was 119 % untreated control and the “Proliferation (% untreated control)” value ([2]; CSS + DHT medium, 5.0 μM) was 114 % untreated control. The “Proliferation (% untreated control)” value ([2]; complete medium, 0.04 μM) was 119 % untreated control, the “Proliferation (% untreated control)” value ([2]; complete medium, 0.2 μM) was 97 % untreated control and the “Proliferation (% untreated control)” value ([2]; complete medium, 1 μM) was 103 % untreated control. The “Proliferation (% untreated control)” value ([2]; complete medium, 5.0 μM) was 98 % untreated control, the “Proliferation (% untreated control)” value ([3]; CSS + DHT medium, 1.34 nM) was 114 % untreated control and the “Proliferation (% untreated control)” value ([3]; CSS + DHT medium, 4.0 nM) was 123 % untreated control. The “Proliferation (% untreated control)” value ([3]; CSS + DHT medium, 13.4 nM) was 104 % untreated control, the “Proliferation (% untreated control)” value ([3]; CSS + DHT medium, 40 nM) was 92 % untreated control and the “Proliferation (% untreated control)” value ([3]; complete medium, 1.34 nM) was 98 % untreated control. For the same sequence, the “Proliferation (% untreated control)” value ([3]; complete medium, 4.0 nM) was 98 % untreated control, the “Proliferation (% untreated control)” value ([3]; complete medium, 13.4 nM) was 113 % untreated control and the “Proliferation (% untreated control)” value ([3]; complete medium, 40 nM) was 106 % untreated control. For the same sequence, the “Percent inhibition of full-length AR” value ([4]; CSS + DHT medium, 1.34 nM) was 2%, the “Percent inhibition of full-length AR” value ([4]; CSS + DHT medium, 4.0 nM) was 13% and the “Percent inhibition of full-length AR” value ([4]; CSS + DHT medium, 13.4 nM) was 22%. The “Percent inhibition of full-length AR” value ([4]; complete medium, 1.34 nM) was 6%, the “Percent inhibition of full-length AR” value ([4]; complete medium, 4.0 nM) was 0% and the “Percent inhibition of full-length AR” value ([4]; complete medium, 13.4 nM) was 11%. The “Percent inhibition of full-length AR” value ([4]; complete medium, 40 nM) was 17%, the “Percent inhibition of AR V7 variant” value ([5]; CSS + DHT medium, 1.34 nM) was 19% and the “Percent inhibition of AR V7 variant” value ([5]; CSS + DHT medium, 4.0 nM) was 19%. The “Percent inhibition of AR V7 variant” value ([5]; CSS + DHT medium, 13.4 nM) was 32%, the “Percent inhibition of AR V7 variant” value ([5]; complete medium, 1.34 nM) was 0% and the “Percent inhibition of AR V7 variant” value ([5]; complete medium, 4.0 nM) was 0%. The “Percent inhibition of AR V7 variant” value ([5]; complete medium, 13.4 nM) was 22%, the “Percent inhibition of AR V7 variant” value ([5]; complete medium, 40 nM) was 26% and the “Apoptosis (% untreated control)” value ([6]; CSS + DHT medium, 1.34 nM) was 113 % untreated control. The “Apoptosis (% untreated control)” value ([6]; CSS + DHT medium, 4.0 nM) was 94 % untreated control, the “Apoptosis (% untreated control)” value ([6]; CSS + DHT medium, 13.4 nM) was 102 % untreated control and the “Apoptosis (% untreated control)” value ([6]; CSS + DHT medium, 40 nM) was 108 % untreated control. The “Apoptosis (% untreated control)” value ([6]; complete medium, 1.34 nM) was 81 % untreated control, the “Apoptosis (% untreated control)” value ([6]; complete medium, 4.0 nM) was 76 % untreated control and the “Apoptosis (% untreated control)” value ([6]; complete medium, 13.4 nM) was 72 % untreated control. For the same sequence, the “Apoptosis (% untreated control)” value ([6]; complete medium, 40 nM) was 123 % untreated control.
